Results on two molecules are retold here after patent US20140004207A1, “Analgesic Apatitic Calcium-Phosphate Cement” (priority 2008, published 2014).

Structures are written as SMILES.

A short description of data set [1]: HPLC and MS analysis of bupivacaine after association and release from CDA. Type of data set: physicochemical. Particulars: cold isostatic compression; three days in water at 37° C.; HPLC and MS vs native molecule. How it is done: Bupivacaine-loaded CDA (400 mg) was stirred in 5 ml of water for three days at 37° C. The aqueous solution was passed through a microfiltration membrane with a pore size of 0.22 μm. Several aliquots of this solution were diluted to working concentration with HPLC. An aliquot of this solution (1 ml) was extracted with 1 ml of dichloromethane (HiPerSolv for HPLC, VWR-BDH). The organic phase was dried over Na2SO4 for further MS studies. HPLC HP 1100 (C18 column, Inertsil 5 ODS-3), flow: 0.5 ml mn^−1, solvent: acetonitrile/water [80/20], injection volume: 10 μl, detection: 230 nm). The liquid phase was prepared by mixing Acetonitrile for HPLC Gradient Grade (VWR-BDH-Prolabo) with pure water. A thermo Electron Corporation DSQ II bench-top quadruple mass spectrometer fitted with a direct sample probe or GC, with chemical ionization (CI), was used for data acquisition and processing.

Data set [2] in a line: Stability of bupivacaine within the composition on storage. Type of data set: physicochemical. Particulars: 4° C. How it is done:
The same method was applied to determine the lidocaine release. A first assay confirmed that the bupivacaine within the composition is stable for 3 months at 4° C.

The conditions of data set [3]: intrabone injection, percutaneous vertebroplastics; cited from earlier work.
For data set [4] the following is noted: continuous intravenous administration; cited from earlier work.

As for `CCCCN1CCCCC1C(=O)Nc1c(C)cccc1C` (centres unmarked) [bupivacaine], in data set [1], the “integrity of bupivacaine after association with CDA granules and release” value was “remained unchanged”. For the same molecule, the “stability of bupivacaine within the composition” value in data set [2] is 3 months.

Turning to `CCN(CC)CC(=O)Nc1c(C)cccc1C` [lidocaine], in data set [3], the “effectiveness versus antalgic protocol comprising nalbuphine and paracetamol” value is on record as “comparable effectiveness”; the “serum levels of lidocaine” value is listed as “much below the toxic level”. Moreover, the postoperative morphine intake entry in data set [4] was “reduction of the postoperative morphine intake”.
